Source: article PMC6656724 (Communications Biology, 2019)
Where two headings read alike, the source gives them in different places.

Assays:
PfKMO = biological target: T1, PfKMO (Pseudomonas fluorescens, UniProt Q84HF5, C252S/C461S); assay: Stopped-flow reduction of flavin cofactor by NADPH; type: biochemical
T1 construct: made in house; host or cells: E. coli BL21 (DE3)

in vitro = in vitro ADME, canine; conditions: dog, MDCK
Protocol: (§1) internal standard at each timepoint. […]
(§2) including an analytical internal standard.
(§3) Apparent permeability (Papp) values were determined from the relationship: […]
(§4) Where V is the volume of each Transwell compartment (apical 125 µL, basolateral 600 µL), and concentrations are the relative MS responses for compound (normalized to internal standard) in the donor chamber before incubation and acceptor chamber at the end of the incubation. Area = area of cells exposed for drug transfer (0.33 cm 2).
(§5) Efflux ratios (Papp B>A / Papp A>B) were calculated for each compound from the […]
(§6) MDR1-MDCK cell line has been engineered to overexpress the efflux transporter, MDR1 (P-glycoprotein), and a finding of good permeability B>A, but poor […]
(§7) order to confirm the involvement of MDR1 in any efflux seen, an “ef fective efflux ratio” (EER) was calculated by comparing compound efflux ratios (ER) in the two cell types, i.e. EER = ER (MDR1-MDCK)/ ER (wild-type MDCK). This ratio illustrates the effect of the over-expressed MDR1 normalised for the background movement of compound through the wild-type cells.
(§8) Lucifer Yellow (LY) was added to the apical buffer in all wells to assess viability of the cell layer. As LY cannot freely permeate lipophilic barriers, a high degree of LY […]
(§9) validity of other wells on the plate.
(§10) Compound recovery from the wells was determined from MS responses (normalized to internal standard) in donor and acceptor chambers at the end of incubation compared to response in the donor chamber pre-incubation.

MDR1 (P-glycoprotein) = assay: in vitro; type: in vitro ADME, canine; conditions: dog
Protocol: as §1, §2, §3, §4, §5, §6, §7, §8, §9, §10

[1] = Mouse brain penetration study; type: in vivo, female C57BL6 mice
Protocol: Inhibitor 1 (and prodrugs 1a, 1b, 1c and 1d) was dosed as a bolus solution intravenously at 1 mg free base/kg (dose volume: 5 mL/kg; dose vehicle: 5% DMSO; 95% saline (inhibitor 1) or 5% DMSO; 40% PEG400; 55% MilliQ H2O (prodrugs 1a, 1b, 1c and 1d)) to female C57BL6 mice (n = 6). At 5 min and 60 min following intravenous bolus injection of test compound, mice (n = 3/timepoint) were placed under terminal anaesthesia with isofluorane. A blood sample was taken by cardiac puncture, the […] decapitated and the brain removed. Brain weight was noted and each brain homogenised with two volumes of methanol (2 mL/g brain). Each blood sample was diluted with distilled water (1:10). Diluted blood and the brain homogenates were then stored frozen until preparation and analysis by UPLC-MS/MS. For each mouse at each timepoint for 1, the concentration in brain (ng/g) was divided by the concentration in blood (ng/mL) to give a brain:blood ratio. The mean value obtained was quoted. For prodrugs 1a to 1d, only the concentration of 1 in blood (ng/mL) and brain (ng/g) was reported.
A rapid and sensitive ultra-performance chromatography/tandem mass spectrometry (UPLC-MS/MS) method was developed and validated for the determination of inhibitor 1 and prodrug 1b (rat only). Chromatographic analysis was conducted on a Waters Acquity™ UPLC system. Chromatographic separation was performed with an Acquity™ UPLC BEH C18 column (50 × 2.1 mm, 1.7 µm, 130Å; Waters Corp.) maintained at 40 °C in a column oven. The mobile phase consisted of water with 0.01% formic acid and ACN with 0.01 % formic acid and it was delivered at a flow rate of 0.6 mL/min under gradient eluent conditions within an analysis cycle time of 3 min. The mass detection was conducted on a Waters Xevo™ TQs mass spectrometer equipped with a ScanWave™ technology. Quantitation of the analyte was performed in electrospray positive ionisation mode (ESI^+) using multiple reaction monitoring. The optimised fragmentation transition was m/z = 270.17 → 196.19 (mouse) or m/z = 270.17 → 223.76 (rat) for inhibitor 1 and m/z = 297.83 → 195.74 for prodrug 1b (rat).
Sample extraction for blood and brain homogenate was by protein precipitation (1:3 or 1:6) using ACN containing suitable internal standard. Extracts were vortexed followed by centrifugation (2800 rpm for 10 min). An aliquot of each supernatant was then diluted two-fold in distilled water ready for analysis by UPLC-MS/MS.
The weighted 1/x^2 calibration line was linear in the dynamic range of 1–5000 ng/mL for inhibitor 1 and 1–1000 ng/mL for prodrug 1b with a correlation coefficient (r^2) > 0.99 (inhibitor 1) or 0.98 (prodrug 1b). The quality control samples (QC) were prepared by using the same spiking scheme as the calibration samples and up to four different target concentration brain levels: 2 ng/mL (LQC), 40 ng/mL (MQC), 100 ng/mL (HQC) and 2000 ng/mL. Data collection, peak integration and calculations were performed using MassLynx software, version 2.1.

T1 sequence (Q84HF5 whole entry C252S/C461S): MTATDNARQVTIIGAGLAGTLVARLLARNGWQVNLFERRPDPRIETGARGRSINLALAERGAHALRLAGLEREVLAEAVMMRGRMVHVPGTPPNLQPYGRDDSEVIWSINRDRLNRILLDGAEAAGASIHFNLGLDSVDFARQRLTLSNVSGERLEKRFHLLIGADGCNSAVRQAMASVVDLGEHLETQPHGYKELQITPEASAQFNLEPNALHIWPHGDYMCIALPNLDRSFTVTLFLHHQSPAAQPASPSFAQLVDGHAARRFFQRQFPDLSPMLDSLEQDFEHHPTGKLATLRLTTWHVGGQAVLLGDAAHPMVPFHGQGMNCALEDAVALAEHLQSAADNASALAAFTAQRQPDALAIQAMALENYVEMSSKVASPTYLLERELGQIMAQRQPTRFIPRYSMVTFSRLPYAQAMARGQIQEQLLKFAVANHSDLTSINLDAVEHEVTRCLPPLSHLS

Cc1cc2c(c(C)c1Cl)N(CC(=O)O)C(=O)CO2 [compound 1, (6-chloro-5,7-dimethyl-3-oxo-2,3-dihydro-4H-1,4-benzoxazin-4-yl) acetic acid]
Reduction rate of flavin cofactor (PfKMO; PfKMO with saturating ligand, 2 mM NADPH, 25 °C, anaerobic): 0.13 ± 0.005 s⁻¹
Stimulation of KMO reduction by NADPH (PfKMO; rapid mixing stopped-flow assays): do not stimulate
Papp A→B at 1 h, 10 µM (in vitro; pH 7.4, Papp A>B n=1, wild type MDCK): 16 ×10⁻⁶ cm/s
Papp A→B at 1 h, 10 µM (in vitro; pH 7.4, Papp A>B n=2, wild type MDCK): 11 ×10⁻⁶ cm/s
Papp B→A at 1 h, 10 µM (in vitro; pH 7.4, Papp B>A n=1, wild type MDCK): 2.6 ×10⁻⁶ cm/s
Papp B→A at 1 h, 10 µM (in vitro; pH 7.4, Papp B>A n=2, wild type MDCK): 2.3 ×10⁻⁶ cm/s
Papp A→B at 1 h, 10 µM (in vitro; pH 7.4, wild type MDCK, read-out: Papp A>B Mean): 13.5 ×10⁻⁶ cm/s
Papp B→A at 1 h, 10 µM (in vitro; pH 7.4, wild type MDCK, read-out: Papp B>A Mean): 2.45 ×10⁻⁶ cm/s
recovery at 1 h, 10 µM (in vitro; pH 7.4, wild type MDCK, read-out: Recovery A>B Mean): 93.5%
recovery at 1 h, 10 µM (in vitro; pH 7.4, wild type MDCK, read-out: Recovery A>B n=1): 100%
recovery at 1 h, 10 µM (in vitro; pH 7.4, wild type MDCK, read-out: Recovery A>B n=2): 87%
recovery at 1 h, 10 µM (in vitro; pH 7.4, wild type MDCK, read-out: Recovery B>A Mean): 108%
recovery at 1 h, 10 µM (in vitro; pH 7.4, wild type MDCK, read-out: Recovery B>A n=1): 108%
recovery at 1 h, 10 µM (in vitro; pH 7.4, wild type MDCK, read-out: Recovery B>A n=2): 109%
Papp A→B at 1 h, 10 µM (MDR1 (P-glycoprotein); MDCK-MDR1, pH 7.4, MDR1 MDCK, read-out: Papp A>B Mean): 16 ×10⁻⁶ cm/s
Papp B→A at 1 h, 10 µM (MDR1 (P-glycoprotein); MDCK-MDR1, pH 7.4, MDR1 MDCK, read-out: Papp B>A Mean): 2.1 ×10⁻⁶ cm/s
recovery at 1 h, 10 µM (MDR1 (P-glycoprotein); MDCK-MDR1, pH 7.4, MDR1 MDCK, read-out: Recovery A>B Mean): 99%
recovery at 1 h, 10 µM (MDR1 (P-glycoprotein); MDCK-MDR1, pH 7.4, MDR1 MDCK, read-out: Recovery A>B n=1): 107%
recovery at 1 h, 10 µM (MDR1 (P-glycoprotein); MDCK-MDR1, pH 7.4, MDR1 MDCK, read-out: Recovery A>B n=2): 91%
recovery at 1 h, 10 µM (MDR1 (P-glycoprotein); MDCK-MDR1, pH 7.4, MDR1 MDCK, read-out: Recovery B>A Mean): 84%
recovery at 1 h, 10 µM (MDR1 (P-glycoprotein); MDCK-MDR1, pH 7.4, MDR1 MDCK, read-out: Recovery B>A n=1): 62%
recovery at 1 h, 10 µM (MDR1 (P-glycoprotein); MDCK-MDR1, pH 7.4, MDR1 MDCK, read-out: Recovery B>A n=2): 106%
Papp A→B at 1 h, 10 µM (MDR1 (P-glycoprotein); MDCK-MDR1, pH 7.4, Papp A>B n=1, MDR1 MDCK): 18 ×10⁻⁶ cm/s
Papp A→B at 1 h, 10 µM (MDR1 (P-glycoprotein); MDCK-MDR1, pH 7.4, Papp A>B n=2, MDR1 MDCK): 14 ×10⁻⁶ cm/s
Papp B→A at 1 h, 10 µM (MDR1 (P-glycoprotein); MDCK-MDR1, pH 7.4, Papp B>A n=1, MDR1 MDCK): 1.8 ×10⁻⁶ cm/s
Papp B→A at 1 h, 10 µM (MDR1 (P-glycoprotein); MDCK-MDR1, pH 7.4, Papp B>A n=2, MDR1 MDCK): 2.4 ×10⁻⁶ cm/s
concentration at 5 min ([1]; C57BL6, mouse, whole blood, iv, female C57BL/6 mice, 1 mg/kg i.v. bolus, 5 min, read-out: Level in the blood (mean)): 3780 ± 639 ng/mL
Brain penetrance (in words) ([1]; mouse, 1 mg/kg i.v.): Minimal brain penetrance
In brain ([1]; mouse, 1 mg/kg i.v., 60 min, single mice, analyte inhibitor 1 (also after prodrugs) or 1h): ≤ LLoQ
